Measurements from patent US8569315B2, “Synergistic antimicrobial composition” (priority 2009, dated 2013).

Experiments:
Format in all cases: cell-based
[1] = test system: Alternaria alternata; assay: Fungal efficacy testing, modified ASTM 5590, paint film; conditions: for Total conc: total biocide in paint chosen as minimum inhibitory concentration, dry film; for Total conc / % inhibition: 3 weeks
Description: (§1) Sample preparation: Samples of white acrylic latex paint free of biocides were prepared in 50 ml aliquots. Each biocide was post added to give the necessary active ingredient concentration in the paint. The total biocides concentrations tested were 750, 1500, 2500 and 5000 ppm. After biocides addition, each sample was hand mixed for a minimum of 30 sec, followed by a 3 min run on the paint shaker (RED DEVIL). Each of the paint samples as well as a control sample (containing no biocide) were used to prepare films on black plastic-vinyl chloride/acetate copolymer panels (LENETA, Mahwah, N.J.) using a 3 mil bird bar applicator. The panels were thoroughly dried for 5 days avoiding direct exposure to sunlight. Square discs (15 mm^2) were cut out from each panel and were used as the substrate for fungal and algal efficacy tests. This sample size allowed for an agar border when the sample disc was placed into the well of the test plate.
(§2) The appropriate media (BOLD'S 3N for Chlorophytes, BG-11 for Cyanobacteria, and PDA for fungi) were used to support microbial growth. The test plates were maintained at room temp (25° C.-26° C.), in a cycled light-dark environment, for 3 weeks for algae. Plates for fungal challenge tests were maintained at 30 C for three weeks. At the end of incubation period the samples were scored for percent area covered by visible microbial growth.
(§3) ASTM 5590 is a standard accelerated test method for determining resistance of various coatings (including paints) to fungal defacement. To accommodate for high-throughput screening, this method was scaled down from petri plates to 12-well plates. To set up the test, an agar plug was placed at the bottom of each well of the sterile 12-well plate. A single coupon was placed with a pair of sterile forceps at the center of the agar plug (on top) with the painted surface facing upwards. Each well was inoculated with 150 μl of organism (1×10^6 cfu/ml) making sure that the whole surface (paint film as well as the agar surrounding it) was evenly covered. The plates were incubated at 30° C. in presence of moisture, for a period of three weeks. The total percent area covered was evaluated and recorded at the end of each week after the 2nd week and recorded in increments of 5%.
(§4) The SI is calculated based on F. C. Kull et.

[2] = test system: Penicillium funiculosum; assay: as above; conditions: for Total conc: total biocide in paint chosen as minimum inhibitory concentration, dry film; for Total conc / % inhibition: 3 weeks
Description: as §1, §2, §3, §4

[3] = test system: Cladosporium herbarum; assay: as above; conditions: for Total conc: total biocide in paint chosen as minimum inhibitory concentration, dry film; for Total conc / % inhibition: 3 weeks
Description: as §1, §2, §3, §4

[4] = test system: Aspergillus niger; assay: as above; conditions: for Total conc: total biocide in paint chosen as minimum inhibitory concentration, dry film; for Total conc / % inhibition: 3 weeks; for % inhibition: total conc 1500 ppm in paint
Description: as §1, §2, §3, §4

[5] = test system: Trichoderma viride; assay: as above; conditions: for Total conc: total biocide in paint chosen as minimum inhibitory concentration, dry film; for Total conc / % inhibition: 3 weeks
Description: as §1, §2, §3, §4

[6] = test system: Aureobasidium pullulans; assay: as above; conditions: for Total conc: total biocide in paint chosen as minimum inhibitory concentration, dry film; for Total conc / % inhibition: 3 weeks
Description: as §1, §2, §3, §4

[7] = test system: Chlorella sp. UTEX + Chlorella kessleri; assay: Algal efficacy testing, modified ASTM 5589, paint film; conditions: for Total conc: total biocide in paint chosen as minimum inhibitory concentration, dry film; for Total conc / % inhibition: 3 weeks
Description: as §1, §2
(§5) ASTM 5589 is a standard accelerated test method for determining resistance of various coatings (including paints) to algal defacement. To accommodate for high-throughput screening, this method was scaled down from petri plates to 12-well plates. A single coupon was placed with a pair of sterile forceps at the center of the agar plug (on top) with the painted surface facing upwards. Each well was inoculated with 150 μl of organism (1×10^6 cfu/ml) making sure that the whole surface (paint film as well as the agar surrounding it) was evenly covered. The plates were incubated at room temp (25° C.-26° C.) with cyclic exposure to light (OTT-Lite model # OTL4012P, 40 Watt, 26 KLumen) and dark phases, for a period of three weeks. The total area covered was evaluated at the end of each week after the second week according to percent area covered in 5% increments. While rating the plates, notations were made for zones of inhibition.
as §4

[8] = test system: Calothrix parientina; assay: as above; conditions: for Total conc: total biocide in paint chosen as minimum inhibitory concentration, dry film; for Total conc / % inhibition: 3 weeks
Description: as §1, §2, §5, §4

[9] = test system: Trentepohlia aurea + Trentepohlia odorata; assay: as above; conditions: for Total conc: total biocide in paint chosen as minimum inhibitory concentration, dry film; for Total conc / % inhibition: 3 weeks; for % inhibition: total conc 1500 ppm in paint
Description: as §1, §2, §5, §4

[10] = test system: Oscillatoria sp.; assay: as above; conditions: for Total conc: total biocide in paint chosen as minimum inhibitory concentration, dry film; for Total conc / % inhibition: 3 weeks
Description: as §1, §2, §5, §4

[11] = test system: Gleocapsa sp.; assay: as above; conditions: for Total conc: total biocide in paint chosen as minimum inhibitory concentration, dry film; for Total conc / % inhibition: 3 weeks
Description: as §1, §2, §5, §4

[12] = test system: Nostoc commune; assay: as above; conditions: for Total conc: total biocide in paint chosen as minimum inhibitory concentration, dry film; for Total conc / % inhibition: 3 weeks
Description: as §1, §2, §5, §4

[13] = test system: Stachybotris chartarum; assay: Fungal efficacy testing, modified ASTM 5590, paint film; conditions: for Total conc: total biocide in paint chosen as minimum inhibitory concentration, dry film
Description: as §1, §2, §3, §4

[14] = total conc 2500 ppm in paint, Table 4
[15] = total conc 750 ppm in paint, Table 4
[16] = total conc 1500 ppm in paint, Table 4
[17] = total conc 750 ppm in paint, Table 3
[18] = total conc 1500 ppm in paint, Table 3
[19] = total conc 2500 ppm in paint, Table 3
[20] = total conc 1500 ppm in paint, Table 2
[21] = total conc 1500 ppm in paint, Table 1

CCOc1nc(F)cc2nc(S(=O)(=O)Nc3c(Cl)cccc3Cl)nn12 [Diclosulam]
0%: % inhibition [1, 14]
35%: % inhibition [6, 16]
750 ppm: Total conc ([5]; Table 4) | Total conc ([7]; Table 3) | Total conc ([8]; Table 3) | Total conc ([10]; Table 3)
2500 ppm: Total conc ([1]; Table 4) | Total conc ([2]; Table 4) | Total conc ([3]; Table 4) | Total conc ([12]; Table 3)
1500 ppm: Total conc ([4]; Table 4) | Total conc ([6]; Table 4) | Total conc ([9]; Table 3) | Total conc ([11]; Table 3)
60%: % inhibition [11, 18]
45%: % inhibition [2, 14]
80%: % inhibition [3, 14] | % inhibition ([4]; Table 4) | % inhibition [5, 15] | % inhibition [8, 17] | % inhibition ([9]; Table 3) | % inhibition [10, 17]
75%: % inhibition [7, 17] | % inhibition [12, 19]

Cc1ccn2nc(S(=O)(=O)Nc3c(F)cccc3F)nc2n1 [Flumetsulam]
90%: inhibition at 2500 ppm ([1]; Alternaria alternata, 504 h) | inhibition at 2500 ppm ([6]; Aureobasidium pullulans, 504 h) | inhibition at 2500 ppm ([8]; 504 h) | inhibition at 1500 ppm ([11]; 504 h)
85%: inhibition at 1500 ppm ([3]; Cladosporium herbarum, 504 h) | inhibition at 1500 ppm ([9]; 504 h) | inhibition at 1500 ppm ([12]; Nostoc commune, 504 h)
1500 ppm: Total conc ([2]; Table 2) | Total conc ([3]; Table 2) | Total conc ([9]; Table 1) | Total conc ([10]; Table 1) | Total conc ([11]; Table 1) | Total conc ([12]; Table 1)
70%: inhibition at 2500 ppm ([13]; 504 h) | inhibition at 2500 ppm ([5]; Trichoderma viride, 504 h)
80%: inhibition at 1500 ppm ([2]; Talaromyces funiculosus, 504 h) | inhibition at 2500 ppm ([7]; 504 h) | inhibition at 1500 ppm ([10]; 504 h)
40%: inhibition at 2500 ppm ([4]; Aspergillus niger, 504 h)
2500 ppm: Total conc ([1]; Table 2) | Total conc ([13]; 3 weeks, Table 2) | Total conc ([4]; Table 2) | Total conc ([5]; Table 2) | Total conc ([6]; Table 2) | Total conc ([7]; Table 1) | Total conc ([8]; Table 1)

CCCCNC(=O)OCC#CI [IPBC, 3-iodo-2-propynyl-butylcarbamate]
70%: % inhibition [2, 16]
50%: % inhibition [1, 14] | % inhibition [11, 19]
90%: % inhibition [2, 20] | % inhibition [3, 20] | % inhibition [6, 20]
2500 ppm: Total conc ([1]; Table 4) | Total conc ([13]; 3 weeks, Table 2) | Total conc ([7]; Table 1) | Total conc ([7]; Table 3) | Total conc ([10]; Table 3) | Total conc ([11]; Table 3)
750 ppm: Total conc ([6]; Table 4) | Total conc ([8]; Table 3) | Total conc ([11]; Table 1)
1500 ppm: Total conc ([1]; Table 2) | Total conc ([2]; Table 2) | Total conc ([2]; Table 4) | Total conc ([3]; Table 2) | Total conc ([3]; Table 4) | Total conc ([4]; Table 2) | Total conc ([4]; Table 4) | Total conc ([5]; Table 2) | Total conc ([5]; Table 4) | Total conc ([6]; Table 2) | Total conc ([8]; Table 1) | Total conc ([9]; Table 1) | Total conc ([9]; Table 3) | Total conc ([10]; Table 1) | Total conc ([12]; Table 1) | Total conc ([12]; Table 3)
65%: % inhibition ([13]; total conc 2500 ppm in paint, 3 weeks, Table 2)
85%: % inhibition [1, 20] | % inhibition ([4]; Table 4) | % inhibition [5, 16]
60%: % inhibition ([4]; Table 2) | % inhibition [6, 15]
80%: % inhibition [3, 16] | % inhibition ([7]; total conc 2500 ppm in paint, Table 1) | % inhibition [7, 19] | % inhibition [8, 17] | % inhibition [8, 21] | % inhibition ([9]; Table 1) | % inhibition ([9]; Table 3) | % inhibition [10, 21] | % inhibition [10, 19] | % inhibition ([11]; total conc 750 ppm in paint, Table 1) | % inhibition [12, 21] | % inhibition [12, 18]
75%: % inhibition [5, 20]
